Laboratory results from patent US20110190365A1, “Insecticidal 4-phenyl-1H-pyrazoles” (Bayer Crop Science AG, priority 2008, published 2011).

Assay: log P by HPLC on a reversed-phase column (C18), EEC Directive 79/831 Annex V.A8
Format: physicochemical
Experimental: The stated log P values were determined in accordance with EEC Directive 79/831 Annex V.A8 by HPLC (High Performance Liquid Chromatography) using a reversed-phase column (C18).

[1] = HCOOH, Table 4, compounds of formula I-A-Q4
[2] = HPLC, reversed-phase C18, mobile phase with formic acid

Row | Compound | log P (HCOOH) (HCOOH) | other results
1 | Nc1c(-c2cc(Cl)cc(Cl)c2)c(C(F)(F)F)nn1-c1ccc(S(=O)(=O)NC2CC2)c(Cl)c1 [I-A-Q4-110] | – | log P (HCOOH) [1]: I-A-Q4-110: log P (HCOOH): 4.49
2 | N#Cc1ccc(-c2c(C(F)(F)F)nn(-c3ccc(-n4cncn4)c(C#N)c3)c2N)cc1 [I-A-Q1-047] | – | log P (HCOOH) [2]: I-A-Q1-047: log P (HCOOH): 2.64
3 | CCOC(=O)c1ccc(-n2nc(C(F)(F)F)c(Cl)c2N)cc1 [XI-A-042] | XI-A-042: log P (HCOOH): 3.52 | –
4 | Cc1cc(-n2nc(C(F)(F)F)c(-c3cc(Cl)cc(Cl)c3)c2N)ccc1C(=O)NC1COC1 [I-A-Q2-044] | I-A-Q2-044: log P (HCOOH): 3.42 | –
5 | Cc1cc(-n2nc(C)c(-c3c(F)cc(F)cc3F)c2N)ccc1C(=O)NCC(F)(F)C(F)F [I-A-Q2-328] | I-A-Q2-328: log P (HCOOH): 2.48 | –
6 | Cc1cc(-n2nc(C(F)(F)F)c(-c3ccccc3Cl)c2N)ccc1C(=O)NCc1ccccn1 [I-A-Q2-351] | I-A-Q2-351: log P (HCOOH): 2.27 | –
7 | Cc1nn(-c2ccc(Cl)cn2)c(N)c1-c1ccc(F)cc1 [I-A-Q4-038] | – | log P (HCOOH) [1]: I-A-Q4-038: log P (HCOOH): 3.84
8 | COc1ccc(-c2c(C)nn(-c3ccc(-n4cncn4)c(C#N)c3)c2N)cc1 [I-A-Q1-058] | – | log P (HCOOH) [2]: I-A-Q1-058: log P (HCOOH): 2.11
9 | Cc1cc(-n2nc(C(F)(F)F)c(-c3cc(Cl)cc(Cl)c3)c2N)ccc1C(=O)N(C)C(C)c1cccnc1 (stereo not drawn) [I-A-Q2-208] | I-A-Q2-208: log P (HCOOH): 3.19 | –
10 | Cc1cc(-n2nc(C(F)(F)F)c(-c3cc(F)cc(Cl)c3)c2N)ccc1C(=O)NCC(F)(F)C(F)F [I-A-Q2-301] | I-A-Q2-301: log P (HCOOH): 3.75 | –
11 | CCCc1nn(-c2ccc(-n3cncn3)c(C#N)c2)c(N)c1-c1ccc(Cl)cc1 [I-A-Q1-065] | – | log P (HCOOH) [2]: I-A-Q1-065: log P (HCOOH): 3.33
12 | Cc1cc(-n2nc(C(F)(F)C(F)(F)F)c(-c3ccc(Cl)cc3)c2N)ccc1C(=O)NCc1ccccn1 [I-A-Q2-363] | I-A-Q2-363: log P (HCOOH): 3.19 | –
13 | Cc1nn(-c2ccc(Cl)cn2)c(N)c1-c1cccc(Cl)c1 [I-A-Q4-034] | – | log P (HCOOH) [1]: I-A-Q4-034: log P (HCOOH): 4.40
14 | N#Cc1cc(-n2nc(C(F)(F)F)c(-c3cc(Cl)cc(Cl)c3)c2N)ccc1-n1ccnc1C#N [I-A-Q1-077] | – | log P (HCOOH) [2]: I-A-Q1-077: log P (HCOOH): 4.05
15 | CCC(NC(=O)c1ccc(-n2nc(C(F)(F)F)c(-c3cc(Cl)cc(Cl)c3)c2N)cc1C)C(F)(F)F (stereo not drawn) [I-A-Q2-200] | I-A-Q2-200: log P (HCOOH): 4.82 | –
16 | Nc1c(I)c(C(F)(F)F)nn1-c1ccc(C(=O)O)cc1 [XI-A-045] | XI-A-045: log P (HCOOH): 2.47 | –
17 | Nc1c(-c2ccc(I)cc2)c(C(F)(F)F)nn1-c1ccc(Cl)cn1 [I-A-Q4-051] | – | log P (HCOOH) [1]: I-A-Q4-051: log P (HCOOH): 5.29
18 | COc1ccc(-c2c(C)nn(-c3ccc(C(=O)NCC(F)(F)C(F)F)c(C)c3)c2N)cc1 [I-A-Q2-324] | I-A-Q2-324: log P (HCOOH): 2.30 | –
19 | CNC(=O)c1ccc(-n2nc(-c3ccccc3)c(-c3ccc(Cl)cc3)c2N)cc1 [I-A-Q2-078] | I-A-Q2-078: log P (HCOOH): 2.94 | –

Row | Compound | log P (HCOOH) (HCOOH) | other results
20 | CC(NC(=O)c1ccc(-n2nc(C(F)(F)F)c(-c3ccc(Cl)c(Cl)c3)c2N)cc1)c1ccccn1 (stereo not drawn) [I-A-Q2-160] | I-A-Q2-160: log P (HCOOH): 3.23 | –
21 | CC(NC(=O)c1cnc(-n2nc(C(F)(F)F)c(-c3cc(Cl)cc(Cl)c3)c2N)nc1C(F)(F)F)c1ccccn1 (stereo not drawn) [I-A-Q2-021] | I-A-Q2-021: log P (HCOOH): 3.48 | –
22 | Nc1c(-c2ccccc2Cl)c(C(F)(F)F)nn1-c1ccc(Cl)cn1 [I-A-Q4-023] | – | log P (HCOOH) [1]: I-A-Q4-023: log P (HCOOH): 4.57
23 | Nc1c(-c2ccc(Cl)c(Cl)c2)c(C(F)(F)F)nn1-c1ccc(C(=O)NCC(F)F)cc1 [I-A-Q2-159] | I-A-Q2-159: log P (HCOOH): 3.65 | –
24 | COC(=O)c1ccc(-n2nc(C(F)(F)F)cc2N)cc1C [XI-A-080] | XI-A-080: log P (HCOOH): 1.97 | –
25 | Cc1cc(-n2nc(C(F)(F)F)c(-c3cc(Cl)cc(Cl)c3)c2I)ccc1C(=O)NCc1ncccn1 [I-A-Q2-275] | I-A-Q2-275: log P (HCOOH): 4.47 | –
26 | Cc1cc(-n2nc(C(F)(F)F)c(-c3cc(Cl)cc(Cl)c3)c2N)ccc1C(=O)NCCc1ccccn1 [I-A-Q2-226] | I-A-Q2-226: log P (HCOOH): 2.50 | –
27 | Nc1c(-c2ccc(Cl)c(F)c2)c(C(F)(F)F)nn1-c1ccc(C(=O)NC2CC2)cc1 [I-A-Q2-170] | I-A-Q2-170: log P (HCOOH): 3.15 | –
28 | CC(C)NC(=O)c1ccc(-n2nc(C(F)(F)F)c(-c3cccc(F)c3)c2N)cc1 [I-A-Q2-181] | I-A-Q2-181: log P (HCOOH): 2.98 | –
29 | Nc1c(-c2cccc(Cl)c2)c(C(F)(F)F)nn1-c1ccc(C(=O)NC2CCCCC2)cc1 [I-A-Q2-093] | I-A-Q2-093: log P (HCOOH): 4.00 | –
30 | Cc1cc(-n2nc(C(F)(F)Cl)c(-c3cc(Cl)cc(C(F)(F)F)c3)c2N)ccc1C(=O)NCc1ccccn1 [I-A-Q2-364] | I-A-Q2-364: log P (HCOOH): 3.53 | –
31 | Cc1cc(-n2nc(C(F)(F)F)c(-c3cc(Cl)cc(Cl)c3)c2N)ccc1C(=O)NC(C)c1ccccn1 (stereo not drawn) [I-A-Q2-015] | I-A-Q2-015: log P (HCOOH): 3.70 | –
32 | Cc1cc(-n2nc(C(F)(F)F)c(-c3cc(Cl)cc(Cl)c3)c2N)ccc1C(=O)NCc1cc(C(F)(F)F)c(Cl)cn1 [I-A-Q2-207] | I-A-Q2-207: log P (HCOOH): 4.83 | –
33 | Cc1nn(-c2ccc(-n3cncn3)c(C#N)c2)c(N)c1-c1ccc(Cl)cc1Cl [I-A-Q1-056] | – | log P (HCOOH) [2]: I-A-Q1-056: log P (HCOOH): 2.80
34 | Nc1c(-c2cc(Cl)cc(Cl)c2)c(C(F)(F)F)nn1-c1ccc(C(=O)NCC(F)(F)F)cn1 [I-A-Q2-101] | I-A-Q2-101: log P (HCOOH): 4.71 | –
35 | Cc1cc(-n2nc(C(F)(F)F)c(-c3cc(Cl)cc(Cl)c3)c2N)ccc1C(=O)NCc1ncc(C(F)(F)F)cc1Cl [I-A-Q2-230] | I-A-Q2-230: log P (HCOOH): 4.89 | –
36 | Cc1cc(-n2nc(C(F)(F)F)c(-c3cc(Cl)cc(Cl)c3)c2N)ccc1C(=O)NC(c1ccc(Oc2ccccc2)cc1)C(F)(F)F (stereo not drawn) [I-A-Q2-045] | I-A-Q2-045: log P (HCOOH): 5.85 | –
37 | N#Cc1cc(-n2nc(C(F)(F)F)c(-c3cc(Cl)cc(Cl)c3)c2N)ccc1-n1cnc(C(N)=O)n1 [I-A-Q1-088] | – | log P (HCOOH) [2]: I-A-Q1-088: log P (HCOOH): 3.06
38 | Cc1cc(-n2nc(C(F)(F)F)c(-c3cc(Cl)cc(Cl)c3)c2N)ccc1C(=O)NCCC(F)=C(F)F [I-A-Q2-061] | I-A-Q2-061: log P (HCOOH): 4.45 | –

Row | Compound | log P (HCOOH) (HCOOH) | other results
39 | Cc1nn(-c2ccc(Cl)cn2)c(N)c1-c1ccc(Cl)c(Cl)c1 [I-A-Q4-060] | – | log P (HCOOH) [1]: I-A-Q4-060: log P (HCOOH): 5.02
40 | Cc1cc(-n2nc(C(F)(F)F)c(-c3cccc(Br)c3)c2N)ccc1C(=O)NCc1ccccn1 [I-A-Q2-357] | I-A-Q2-357: log P (HCOOH): 2.72 | –
41 | Cc1cc(-n2nc(C3CC3)c(-c3ccc(Cl)cc3)c2N)ccc1C(=O)NCC(F)(F)C(F)F [I-A-Q2-341] | I-A-Q2-341: log P (HCOOH): 3.46 | –
42 | Cc1cc(-n2nc(C(F)(F)F)c(-c3cc(Cl)cc(Cl)c3)c2N)ccc1C(=O)NC(c1ccc(N(C)C)cc1)C(F)(F)F (stereo not drawn) [I-A-Q2-246] | I-A-Q2-246: log P (HCOOH): 5.02 | –
43 | Cc1cc(-n2nc(C(F)(F)F)c(-c3cc(C(F)(F)F)cc(C(F)(F)F)c3)c2N)ccc1C(=O)NCC(F)(F)C(F)F [I-A-Q2-318] | I-A-Q2-318: log P (HCOOH): 4.23 | –
44 | CCCCCNC(=O)c1ccc(-n2nc(C(F)(F)F)c(-c3cc(Cl)cc(Cl)c3)c2N)cc1C [I-A-Q2-237] | I-A-Q2-237: log P (HCOOH): 4.76 | –
45 | COC(=O)CNC(=O)c1ccc(-n2nc(C(F)(F)F)c(-c3cc(Cl)cc(Cl)c3)c2N)cc1C [I-A-Q2-030] | I-A-Q2-030: log P (HCOOH): 3.68 | –
46 | Cc1cc(-n2nc(C)c(-c3cc(Cl)ccc3Cl)c2N)ccc1C(=O)NCc1ccccn1 [I-A-Q2-375] | I-A-Q2-375: log P (HCOOH): 2.04 | –
47 | Nc1c(-c2cccc(Br)c2)c(C(F)(F)F)nn1-c1ccc(Cl)cn1 [I-A-Q4-052] | – | log P (HCOOH) [1]: I-A-Q4-052: log P (HCOOH): 5.02
48 | CCCc1nn(-c2ccc(C(=O)NCc3ccccn3)c(C)c2)c(N)c1-c1ccc(Cl)cc1 [I-A-Q2-380] | I-A-Q2-380: log P (HCOOH): 2.53 | –
49 | CCNC(=O)c1ccc(-n2nc(C(F)(F)F)c(-c3cc(Cl)cc(Cl)c3)c2N)cc1 [I-A-Q2-142] | I-A-Q2-142: log P (HCOOH): 3.77 | –
50 | N#Cc1cc(-n2nc(C(F)(F)F)c(-c3ccc(Cl)c(Cl)c3)c2N)ccc1-n1cncn1 [I-A-Q1-031] | – | log P (HCOOH) [2]: I-A-Q1-031: log P (HCOOH): 3.60
51 | N#Cc1cc(-n2nc(C(F)(F)F)c(-c3cccc(Br)c3)c2N)ccc1-n1cncn1 [I-A-Q1-046] | – | log P (HCOOH) [2]: I-A-Q1-046: log P (HCOOH): 3.24
52 | CC(NC(=O)c1ccc(-n2nc(C(F)(F)F)c(-c3cccc(F)c3)c2N)cc1)c1ccccn1 (stereo not drawn) [I-A-Q2-186] | I-A-Q2-186: log P (HCOOH): 2.42 | –
53 | Cc1cc(-n2nc(C(F)(F)F)c(-c3cc(Cl)cc(Cl)c3)c2N)ccc1C(=O)NC(C)C(F)(F)F (stereo not drawn) [I-A-Q2-011] | I-A-Q2-011: log P (HCOOH): 4.54 | –
54 | Cc1cc(-n2nc(C)c(-c3ccc(F)cc3F)c2N)ccc1C(=O)NCC(F)(F)C(F)F [I-A-Q2-329] | I-A-Q2-329: log P (HCOOH): 2.59 | –
55 | Cc1cc(-n2nc(C(F)(F)F)c(-c3ccccc3Br)c2N)ccc1C(=O)NCC1CC1 [I-A-Q2-422] | I-A-Q2-422: log P (HCOOH): 3.41 | –
56 | Cc1nn(-c2ccc(-n3cncn3)c(C#N)c2)c(N)c1-c1c(Cl)cccc1Cl [I-A-Q1-055] | – | log P (HCOOH) [2]: I-A-Q1-055: log P (HCOOH): 2.47
57 | CNC(=O)c1ccc(-n2nc(C(F)(F)F)c(-c3ccccc3Cl)c2N)cc1 [I-A-Q2-082] | I-A-Q2-082: log P (HCOOH): 2.46 | –
